{"source": "patent US20240299504A1", "about": "“COMPOSITIONS AND METHODS FOR TREATING ALZHEIMERS DISEASE” (priority 2023, published 2024)", "type_in_all_cases": "in vivo, mouse", "key": {"[1]": {"tested_on": "osteocalcin", "experiment": "Serum osteocalcin ELISA (bone formation marker)", "settings": "6-MO female 5×FAD vs control mice; 50 μg/Kg s.c. intermittent", "method": "(§1) Parathyroid hormone (human) was purchased from TOCRIS Bioscience (Cat #3011/1, Abingdon, United Kingdom). WT or 5×FAD mice (both male and female) were treated with PTH1-34 intermittently [once daily injection of hPTH1-34 (50 μg/Kg) or vehicle (0.9% sodium chloride) (as a control) by subcutaneous injection, starting at 2-MO, 5 days per week] as described previously. Mice were then subjected to behavioral tests and sacrificed for examinations of their bone and brain phenotypes at the indicated ages.\nSubmandibular blood collection was performed in anesthetized mice. A swift lancing motion is used to puncture the vessel. Blood sample (up to 200 μl) was collected with a pipette or other collection tube, allowed to stand at room temperature for 30 min and centrifuged for 15 min at 3000 rpm. Supernatant serum was aliquot and frozen at −80° C. until use. Mouse serum levels of osteocalcin (a marker for bone formation), PYD (pyridinoline, a marker for bone resorption), and PTH were measured using mouse osteocalcin Elisa kit (QUIDEL Corporation), METRA Serum PYD EIA kit (QUIDEL Corporation, San Diego, CA, USA), and mouse PTH Elisa kit (MyBioSource), respectively, following the manufacturers' instruction."}, "[2]": {"tested_on": "IBA1+ microglia", "experiment": "Co-immunostaining ThioS/IBA1/LPL, microglial cells", "settings": "6-MO 5×FAD female mice vs Veh", "method": "as §1\n(§2) DAPI was used for nucleus staining."}, "[3]": {"tested_on": "ATG9A+ dystrophic neurites", "experiment": "Co-immunostaining ThioS/ATG9A, plaque-associated dystrophic neurites", "settings": "cortex and hippocampus, ~6 MO 5×FAD female mice vs Veh", "method": "as §1, §2"}}}
{"smiles": "CC[C@H](C)[C@H](NC(=O)[C@H](CCC(=O)O)NC(=O)[C@H](CO)NC(=O)[C@@H](NC(=O)[C@@H](N)CO)C(C)C)C(=O)N[C@@H](CCC(N)=O)C(=O)N[C@@H](CC(C)C)C(=O)N[C@@H](CCSC)C(=O)N[C@@H](Cc1cnc[nH]1)C(=O)N[C@@H](CC(N)=O)C(=O)N[C@@H](CC(C)C)C(=O)NCC(=O)N[C@@H](CCCCN)C(=O)N[C@@H](Cc1cnc[nH]1)C(=O)N[C@@H](CC(C)C)C(=O)N[C@@H](CC(N)=O)C(=O)N[C@@H](CO)C(=O)N[C@@H](CCSC)C(=O)N[C@@H](CCC(=O)O)C(=O)N[C@@H](CCCN=C(N)N)C(=O)N[C@H](C(=O)N[C@@H](CCC(=O)O)C(=O)N[C@@H](Cc1c[nH]c2ccccc12)C(=O)N[C@@H](CC(C)C)C(=O)N[C@@H](CCCN=C(N)N)C(=O)N[C@@H](CCCCN)C(=O)N[C@@H](CCCCN)C(=O)N[C@@H](CC(C)C)C(=O)N[C@@H](CCC(N)=O)C(=O)N[C@@H](CC(=O)O)C(=O)N[C@H](C(=O)N[C@@H](Cc1cnc[nH]1)C(=O)N[C@@H](CC(N)=O)C(=O)N[C@@H](Cc1ccccc1)C(=O)O)C(C)C)C(C)C", "note": "[PTH1-34]", "values": [{"measurement": "serum osteocalcin levels", "setting": "[1]", "value": "increased serum osteocalcin levels more in 5×FAD mice than that in control mice"}, {"measurement": "Aβ associated LPL+IBA1+ microglial cells (DAM)", "setting": "[2]", "value": "little to no difference"}, {"measurement": "IBA1+ cell density and fluorescence intensity in regions without Aβ plaques", "setting": "[2]", "value": "comparable"}, {"measurement": "ThioS+ Aβ plaque associated IBA1 fluorescence", "setting": "[2]", "value": "unchanged"}, {"measurement": "overall IBA1 fluorescence intensity", "setting": "[2]; cortex and hippocampus", "value": "lower in PTH1-34 treated 5×FAD cortex and hippocampus than that of Veh controls"}, {"measurement": "ATG9A+ dystrophic neurites", "setting": "[3]", "value": "smaller and less dense ATG9A+ dystrophic neurites"}]}
